The record followed here is patent publication US20040163143A1, “Method for efficiently producing transgenic plant using auxin precursor” (NIPPON PAPER INDUSTRIES CO., LTD., priority 2002, published 2004).

Molecules are shown by their SMILES.

Assay [1] has as its system E. globulus hypocotyl sections. Description: E. globulus gene introduction test, vector pIPT10 (ipt only + GUS), adventitious bud redifferentiation and GUS staining. It counts as cell-based, Eucalyptus globulus. The settings on record: for B/A Redifferentiation ratio / C/A Gene introduction ratio / C/B Selection efficiency: section basis. As to the method: Seeds of E. globulus from Chile were sterilized by soaking in 70% ethanol for about 1 minute and then soaking with stirring in a 2% aqueous sodium hypochlorite solution for about 4 hours, washed thoroughly with sterile water, inoculated on an MS agar medium to which 0.5 mg/l zeatin had been added and stored in a refrigerator at 4° C. for 2 days to accelerate germination, and then the germination was carried out by culturing at 25° C. under light conditions of about 10 μmol/m^2/s in light intensity. One to two weeks after the inoculation of the seeds onto the germination medium, hypocotyls were collected by cutting out apical buds, cotyledons and roots of the germinated seedlings, and the hypocotyls were cut into sections of about 5 mm to be used as samples for gene introduction and subjected to the following test. A. tumefaciens EHA105 introduced with the plasmid pIAH6 in the above item I was cultured overnight in the YEB liquid medium and then diluted to OD630 =0.5 with EG basal medium, and the sections of hypocotyl prepared in the above were soaked in the cell suspension. Next, each of the sections after removing excess cell suspension was co-cultured with Agrobacterium on an agar medium (agar 8.5 g/l) prepared by adding 1.0 mg/l zeatin, 0.05 mg/l NAA and 40 mg/l acetosyringone to the EG basal medium, at 25° C. for 3 days in the dark to thereby infect each section with the pIAH6-introduced Agrobacterium. In this case, a modified MS medium having an ammonia nitrogen/nitrate nitrogen concentration ratio of 1:3 (5 mM NH4, 15 mM NO3) was supplemented with 20 g/l sucrose and used as the EG basal medium. The sections after infection culturing were put on an EG basal agar medium (agar 8.5 g/l) supplemented with 500 mg/l ticarcillin and 1 μM or 10 μM of an auxin precursor analogue NAM, and the culturing was continued at 25° C. under light conditions of 30 to 40 μmol/m^2/s in light intensity while sub-culturing at an interval of 2 weeks using the same medium. Among these sections, the quicker ones redifferentiated adventitious buds after about 2 months of the Agrobacterium infection. Three months after the Agrobacterium infection, in order to examine expression of the GUS gene used as a model of the desired gene, the redifferentiated adventitious buds were subjected to a GUS staining test in accordance with the method of Jefferson et al. (Plant Mol. Biol. Rep., 5: 387-405 (1987)), and the degree of formation of desired gene-introduced adventitious buds was judged by examining the number of stained adventitious buds (the number of adventitious buds expressing the desired gene). An E. globulus gene introduction test was carried out in the same manner as in Example 1, except that the hypocotyl sections after the Agrobacterium infection were cultured using the EG basal agar medium (agar 8.5 g/l) supplemented with 500 mg/l ticarcillin and 0 μM, 1 μM or 10 μM NAA as auxin. An E. globulus gene introduction test was carried out in the same manner as in Example 1 or Comparative Example 1, except that a plasmid pIPT10 having only the ipt gene as the selectable marker gene was used as the vector. Also, the vector also has the GUS gene as a model of the desired gene. Structure of T-DNA region of the pIPT10 used in this case is shown in FIG. 2, and results of the gene introduction test are shown in Table 3.

Assay [2] deals with stem sections of a high rooting clone of E. globulus. Description: gene introduction test on high rooting clone of E. globulus, vector pIAH6, GUS staining. It counts as cell-based, Eucalyptus globulus. The conditions noted are these: NAM 1 μM. As to the method: Definite buds of a high rooting clone of E. globulus from Chile were aseptically grown using a medium prepared by adding 0.5 mg/l zeatin to the Y basal medium of Example 2, and the elongated stems were cut into sections of 5 mm to be used as samples for gene introduction and infected with the plasmid pIAH6-introduced Agrobacterium in the same manner as in Example 1. The sections after infection culturing were put on an EG basal agar medium (agar 8.5 g/l) supplemented with 500 mg/l ticarcillin and 1 μM of an auxin precursor analogue NAM, and the culturing was continued at 25° C. under light conditions of 30 to 40 μmol/m^2/s in light intensity while sub-culturing at an interval of 2 weeks using the same medium. Four months after the Agrobacterium infection, the redifferentiated adventitious buds were subjected to a GUS staining test in accordance with the above method of Jefferson et al., and the degree of formation of desired gene-introduced adventitious buds was judged.

With `NC(=O)Cc1cccc2ccccc12` [NAM, naphthaleneacetic acid amide], in assay [1] (additive 1 μM in medium), the “B Adventitious bud differentiated (number of sections)” value is 2 number of sections, the “C GUS + adventitious bud differentiated (number of sections)” value was 0 number of sections, the “B/A Redifferentiation ratio” value was determined as 4.4% and the “C/A Gene introduction ratio” value worked out at 0.0%. For the same compound, the “C/B Selection efficiency” value in assay [1] (additive 1 μM in medium) was determined as 0%. Moreover, in assay [1] (additive 10 μM in medium), the “B Adventitious bud differentiated (number of sections)” value is on record as 0 number of sections, the “C GUS + adventitious bud differentiated (number of sections)” value is given as 0 number of sections, the “B/A Redifferentiation ratio” value was found to be 0% and the “C/A Gene introduction ratio” value is recorded as 0.0%. The “C/B Selection efficiency” value in assay [1] (additive 10 μM in medium) turned out to be 0%. Moreover, the “sections whose buds had the desired gene introduced (GUS staining)” value in assay [2] (among 40 stem sections) was 3 sections. Further, in assay [2] (among 40 stem sections, 4 months after infection), the “sections from which adventitious buds were differentiated” value was determined as 5 sections. For the same compound, in assay [2] (section basis), the “gene introduction ratio into adventitious buds” value turned out to be 7.5%, the “redifferentiation ratio of adventitious buds” value came out at 12.5% and the selection efficiency was 60.0%.
